Measurements from ChEMBL document CHEMBL3046223, “Compounds against inflammation and oxidative insult as potential agents for neurodegenerative disorders” (Med Chem Res, 2012).
Each block holds one compound with its values, some of them ahead of it.

Assays:
[1] = tested on: Liver microsome; experiment: Antioxidant activity in Rattus norvegicus (rat) liver microsomal fraction assessed as inhibition of lipid peroxidation after 45 min by spectrophotometric analysis; format: functional, microsomes; conditions: 0.75 h
[2] = biological target: T1, Seed linoleate 13S-lipoxygenase-1 (Glycine max, UniProt P08170); experiment: Inhibition of Glycine max (soybean) lipoxygenase assessed as formation of 13-hydroperoxylinoleic acid using sodium linoleate as substrate after 7 min
T1 sequence (P08170 whole entry): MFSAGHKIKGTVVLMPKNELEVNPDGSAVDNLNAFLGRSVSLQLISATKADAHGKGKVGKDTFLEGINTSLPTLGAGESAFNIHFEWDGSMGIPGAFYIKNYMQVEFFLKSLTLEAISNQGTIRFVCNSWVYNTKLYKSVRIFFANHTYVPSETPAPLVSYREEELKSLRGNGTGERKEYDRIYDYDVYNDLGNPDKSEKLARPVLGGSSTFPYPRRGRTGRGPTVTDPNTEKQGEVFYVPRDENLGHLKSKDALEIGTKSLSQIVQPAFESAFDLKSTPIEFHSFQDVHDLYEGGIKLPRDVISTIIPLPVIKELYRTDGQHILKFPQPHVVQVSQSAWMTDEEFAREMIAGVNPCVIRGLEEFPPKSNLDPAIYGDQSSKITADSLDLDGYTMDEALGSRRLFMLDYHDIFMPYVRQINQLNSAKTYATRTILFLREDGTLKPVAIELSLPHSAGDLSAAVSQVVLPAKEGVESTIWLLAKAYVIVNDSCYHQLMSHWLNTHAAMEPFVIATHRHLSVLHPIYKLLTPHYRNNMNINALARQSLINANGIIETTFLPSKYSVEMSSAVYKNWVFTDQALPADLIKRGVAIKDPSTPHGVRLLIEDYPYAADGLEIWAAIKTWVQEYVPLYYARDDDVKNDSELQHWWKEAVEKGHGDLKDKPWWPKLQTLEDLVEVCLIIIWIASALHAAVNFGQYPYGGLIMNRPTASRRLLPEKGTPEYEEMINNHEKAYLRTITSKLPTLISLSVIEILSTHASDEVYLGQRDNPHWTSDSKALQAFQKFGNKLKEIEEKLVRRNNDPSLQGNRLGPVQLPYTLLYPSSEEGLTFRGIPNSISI

[3] = tested on: Mus musculus; experiment: Anti-inflammatory activity in Balb-C Mus musculus (mouse) assessed as inhibition of FCA-induced paw oedema at 0.30 mmol/kg, ip administered 5 min before FCA challenge measured after 3 hr relative to control; format: functional
[4] = tested on: Rattus norvegicus; experiment: Anti-inflammatory activity in Rattus norvegicus Fischer-344 (rat) assessed as inhibition of carrageenan-induced paw oedema at 0.30 mmol/kg, ip administered 5 min before […] measured after 3 hr relative to control; format: functional; conditions: Fischer-344, ip
[5] = biological target: T2, Prostaglandin G/H synthase 1 (Ovis aries) (UniProt P05979); experiment: Inhibition of Ovis aries (sheep) COX1 assessed as formation of PGF2a at 200 uM by enzyme immunoassay
T2 sequence (whole entry): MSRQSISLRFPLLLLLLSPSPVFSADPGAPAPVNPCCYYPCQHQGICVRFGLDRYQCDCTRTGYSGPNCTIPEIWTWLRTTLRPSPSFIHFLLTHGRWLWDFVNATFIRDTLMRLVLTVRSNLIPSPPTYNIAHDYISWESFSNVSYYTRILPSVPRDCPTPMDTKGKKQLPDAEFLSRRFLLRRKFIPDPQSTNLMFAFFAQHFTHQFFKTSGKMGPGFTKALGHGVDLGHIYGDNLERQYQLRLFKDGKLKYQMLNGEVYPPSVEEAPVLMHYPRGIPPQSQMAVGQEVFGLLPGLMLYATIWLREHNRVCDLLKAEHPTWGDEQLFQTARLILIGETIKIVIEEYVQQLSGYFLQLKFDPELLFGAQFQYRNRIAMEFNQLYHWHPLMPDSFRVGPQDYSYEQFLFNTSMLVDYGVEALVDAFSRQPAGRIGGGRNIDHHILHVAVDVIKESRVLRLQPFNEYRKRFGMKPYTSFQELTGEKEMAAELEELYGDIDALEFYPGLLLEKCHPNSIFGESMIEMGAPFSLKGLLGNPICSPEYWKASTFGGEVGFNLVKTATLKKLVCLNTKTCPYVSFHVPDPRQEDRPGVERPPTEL

[6] = tested on: Rattus norvegicus; experiment: Gastrointestinal toxicity in Rattus norvegicus (rat) assessed as perforating ulcers at 84 umol/kg, sc qd for 4 days; format: organism-based; conditions: in vivo, 96 h
[7] = tested on: Rattus norvegicus; experiment: Toxicity in rat assessed as body weight change per 100 gram body weight at 84 umol/kg, sc qd for 4 days; format: organism-based; conditions: in vivo, 96 h
[8] = Toxicity in Rattus norvegicus (rat) assessed as mortality at 84 umol/kg, sc qd for 4 days; format: organism-based; conditions: in vivo
[9] = tested on: Rattus norvegicus; experiment: Gastrointestinal toxicity in Rattus norvegicus (rat) assessed as incidence of melena at 84 umol/kg, sc qd for 4 days; format: organism-based; conditions: in vivo, 96 h
[10] = tested on: Mus musculus; experiment: Anti-inflammatory activity in Balb-C Mus musculus (mouse) assessed as inhibition of FCA-induced paw oedema at 0.15 mmol/kg, ip administered 5 min before FCA challenge measured after 3 hr relative to control; format: functional
[11] = tested on: Rattus norvegicus; experiment: Toxicity in Rattus norvegicus (rat) assessed as body weight change per 100 gram body weight at 200 umol/kg, sc qd for 4 days; format: organism-based; conditions: in vivo, 96 h
[12] = tested on: Rattus norvegicus; experiment: Gastrointestinal toxicity in Rattus norvegicus (rat) assessed as perforating ulcers at 200 umol/kg, sc qd for 4 days; format: organism-based; conditions: in vivo, 96 h
[13] = tested on: Rattus norvegicus; experiment: Gastrointestinal toxicity in Rattus norvegicus (rat) assessed as incidence of melena at 200 umol/kg, sc qd for 4 days; format: organism-based; conditions: in vivo, 96 h
[14] = Toxicity in Rattus norvegicus (rat) assessed as mortality at 200 umol/kg, sc qd for 4 days; format: organism-based; conditions: in vivo
[15] = Drug uptake in Rattus norvegicus (rat) brain at 0.6 mmol/kg, ip after 60 min by RP-HPLC analysis; format: ADME, organism-based; conditions: read-out: Drug uptake
[16] = Drug uptake in Rattus norvegicus (rat) brain at 0.6 mmol/kg, ip after 120 min by RP-HPLC analysis; format: ADME, organism-based; conditions: read-out: Drug uptake
[17] = Drug uptake in Rattus norvegicus (rat) brain at 0.6 mmol/kg, ip after 30 min by RP-HPLC analysis; format: ADME, organism-based; conditions: read-out: Drug uptake
[18] = tested on: Liver microsome; experiment: Antioxidant activity in Rattus norvegicus (rat) liver microsomal fraction assessed as inhibition of lipid peroxidation at 1 mM after 45 min by spectrophotometric analysis; format: functional, microsomes
[19] = Ratio of drug level in brain to blood in Rattus norvegicus (rat) at 0.6 mmol/kg, ip after 3 hr by RP-HPLC analysis; format: ADME, organism-based
[20] = Ratio of drug level in brain to blood in Rattus norvegicus (rat) at 0.6 mmol/kg, ip after 2 hr by RP-HPLC analysis; format: ADME, organism-based
[21] = tested on: Rattus norvegicus; experiment: Anti-inflammatory activity in Rattus norvegicus (rat) ischemia-reperfusion model assessed as reduction of malondialdehyde formation in brain at 0.4 mmol/kg, ip qd for 4 days and dose repeated 2 hr before initiation of ischemia measured 90 min after reperfusion; format: functional

Compound: CCOC(=O)C(CS)NC(=O)C1CCCCN1C(=O)Cc1c(C)[nH]c2ccc(OC)cc12 (stereo unspecified)
IC50 [1]: 8 µM

Compound: CC(C)Cc1ccc(C(C)C(=O)N2CCCC2C(=O)OCCO)cc1 (stereo unspecified)
IC50 [2]: 320 µM | inhibition in vivo at 300 µmol/kg [3]: 24%

Compound: COc1ccc2c(c1)c(CC(=O)O)c(C)n2C(=O)c1ccc(Cl)cc1 [INDOMETHACIN]
Activity [6]: 80% | Activity [7]: -15 g | mortality at 96 h [8]: 50% | Activity [9]: 100% | inhibition in vivo at 150 µmol/kg [10]: 68%

Compound: CC(C(=O)O)c1cccc(C(=O)c2ccccc2)c1 (stereo unspecified) [KETOPROFEN]
inhibition [5]: 86% | Activity [11]: -24 g | Activity [12]: 85% | Activity [13]: 100% | mortality at 96 h [14]: 50%

Compound: CCOC(=O)C(CS)NC(=O)C1CCCN1C(=O)C(C)c1ccc(CC(C)C)cc1 (stereo unspecified)
concentration at 1 h [15]: 40800 ng/g | concentration at 2 h [16]: 27800 ng/g | concentration at 0.5 h [17]: 1590 ng/g

Compound: CC(C)Cc1ccc(C(C)C(=O)OCCCc2cccnc2)cc1 (stereo unspecified)
IC50 [2]: 45 µM | inhibition in vivo at 300 µmol/kg [3]: 59%

Compound: CC(C)Cc1ccc(C(C)C(=O)N2CCCC2C(=O)OCCO[N+](=O)[O-])cc1 (stereo unspecified)
IC50 [2]: 240 µM | inhibition in vivo at 300 µmol/kg [3]: 62% | inhibition [18]: 14%

Compound: CCOC(=O)C(CS)NC(=O)C1CCCN1C(=O)C(C)c1cccc(C(=O)c2ccccc2)c1 (stereo unspecified)
IC50 [2]: 170 µM | IC50 [1]: 440 µM | inhibition in vivo at 300 µmol/kg [4]: 52%

Compound: CC(C(=O)OCCCc1cccnc1)c1cccc(C(=O)c2ccccc2)c1 (stereo unspecified)
IC50 [2]: 145 µM | inhibition in vivo at 300 µmol/kg [4]: 61% | inhibition [5]: 87% | Activity [11]: -13 g | Activity [12]: 50% | Activity [13]: 60% | mortality at 96 h [14]: 33%

Compound: COc1ccc2cc(C(C)C(=O)OCCCc3cccnc3)ccc2c1 (stereo unspecified)
IC50 [2]: 28 µM | inhibition in vivo at 300 µmol/kg [4]: 27% | inhibition [5]: 71%

Compound: COc1ccc2c(c1)c(CC(=O)N1CCCC1C(=O)Oc1ccc(C)cc1OC)c(C)n2C(=O)c1ccc(Cl)cc1 (stereo unspecified)
inhibition in vivo at 300 µmol/kg [3]: 54% | Activity [6]: 0% | Activity [7]: 11 g | inhibition [5]: 16% | mortality at 96 h [8]: 0% | Activity [9]: 0% | inhibition in vivo at 150 µmol/kg [10]: 49%

Compound: C[C@H](C(=O)O)c1cccc(C(=O)c2ccccc2)c1 [DEXKETOPROFEN]
inhibition in vivo at 300 µmol/kg [4]: 42%

Compound: CC(C)Cc1ccc([C@H](C)C(=O)O)cc1 [DEXIBUPROFEN]
inhibition in vivo at 300 µmol/kg [3]: 53%

Compound: CCOC(=O)C(CS)NC(=O)C1CCCN1C(=O)Cc1c(C)n(C(=O)c2ccc(Cl)cc2)c2ccc(OC)cc12 (stereo unspecified)
IC50 [1]: 390 µM | inhibition in vivo at 300 µmol/kg [3]: 44% | Activity [21]: 3 nmol/mg | inhibition in vivo at 150 µmol/kg [10]: 25%

Compound: CC(C)Cc1ccc(C(C)C(=O)N2CCCC2C(=O)NCCS)cc1 (stereo unspecified)
concentration at 1 h [15]: 10200 ng/g | concentration at 2 h [16]: 35200 ng/g | concentration at 0.5 h [17]: 9780 ng/g

Compound: CC(C(=O)NCCS)c1cccc(C(=O)c2ccccc2)c1 (stereo unspecified)
IC50 [1]: 650 µM | inhibition in vivo at 300 µmol/kg [4]: 39%

Now from value to compound, other results behind:

inhibition [5]: 52%
Compound: COc1ccc2cc([C@H](C)C(=O)O)ccc2c1 [NAPROXEN]
inhibition in vivo at 300 µmol/kg [4]: 51%

IC50 [2]: 90 µM
Compound: COc1ccc2cc(C(C)C(=O)Oc3ccc(C)cc3OC)ccc2c1 (stereo unspecified)
inhibition in vivo at 300 µmol/kg [4]: 40%

concentration at 1 h [15]: 5700 ng/g | concentration at 2 h [16]: 710 ng/g | Kp at 3 h [19]: 0.004 | concentration at 0.5 h [17]: 26600 ng/g | Kp at 2 h [20]: 0.04
Compound: COc1ccc2cc([C@H](C)C(=O)N3CC(O)CC3C(=O)NCCS)ccc2c1 (stereo partly specified)

IC50 [2]: 65 µM
Compound: COc1cc(C)ccc1OC(=O)C(C)c1ccc(CC(C)C)cc1 (stereo unspecified)
inhibition in vivo at 300 µmol/kg [3]: 43%

IC50 [2]: 46 µM
Compound: COc1ccc2cc(C(C)C(=O)N3CCCC3C(=O)OCCCc3cccnc3)ccc2c1 (stereo unspecified)
inhibition in vivo at 300 µmol/kg [4]: 24%

IC50 [2]: 60 µM
Compound: COc1cc(C)ccc1OC(=O)C1CCCN1C(=O)C(C)c1cccc(C(=O)c2ccccc2)c1 (stereo unspecified)
inhibition in vivo at 300 µmol/kg [4]: 13%

IC50 [2]: 60 µM
Compound: CC(C)Cc1ccc(C(C)C(=O)N2CCCC2C(=O)OCCCc2ccccc2)cc1 (stereo unspecified)
inhibition in vivo at 300 µmol/kg [3]: 31%

inhibition [5]: 16%
Compound: COc1ccc2cc(C(C)C(=O)N3CCCC3C(=O)Oc3ccc(C)cc3OC)ccc2c1 (stereo unspecified)
inhibition in vivo at 300 µmol/kg [4]: 20%
